Data from US6306853A, “1,4-Dihydropyridine derivatives” (Nikken Chemicals Co., Ltd., priority 1998, dated 2001).

Tested on: KB/VJ 300 cells
Assay: Degree of resistance to VCR in multi-drug resistant VJ-300 cells on combined administration of vincristine and test compound
Format: cell-based, human
Details: relative to KB = 1
Protocol: Human rhinopharynx cancer derived KB cells (i.e., sensitive cells) and their multi-drug resistant clone KB/VJ 300 cells (i.e., resistant cells) were used as the test cells. As the incubation solutions, use was made of 10% fetal calf serum (Flow Laboratories) and Eagle MEM medium (Nissui Seiyaku) containing 0.292 mg/ml of L-glutamine (Flow Laboratories). The tests of the action for overcoming resistance to anti-cancer drugs or […]
The test cells were suspended in incubation solutions and adjusted to a cell density of about 200 cells/ml. The cell suspensions were injected in 2 ml amounts into petri dishes and were incubated in a CO2 gas incubator (5% CO2, 95% air) at 37° C. for 24 hours. […] After the end of the incubation, the result was immobilized with methanol, Tripan blue stained and measured for the number of colonies per dish. The results were used to prepare a volume-reaction curve. From this, the ADM concentration of the 50% cell survival rate (LD50 ) was calculated and the effect for overcoming resistance to anti-cancer drugs and the effect for increasing the effect of anti-cancer drugs were judged. The results are shown in Table 12 to Table 14 using the concentration of LD50 of ADM in the ADM alone group when KB cells were used as the resistance degree 1 and calculating the resistances of the following LD50 concentrations as relative ratios. […]

For CC[C@]1(O)C[C@H]2CN(CCc3c([nH]c4ccccc34)[C@@](C(=O)OC)(c3cc4c(cc3OC)N(C=O)[C@H]3[C@@](O)(C(=O)OC)[C@H](OC(C)=O)[C@]5(CC)C=CCN6CC[C@]43[C@@H]65)C2)C1 [VCR, vincristine], the “Degree of resistance for VCR, VJ-300 (VCR alone, control)” value was 903-970.
